Source: paper PMC7335359, “Design and Synthesis of Dihydroxamic Acids as HDAC6/8/10 Inhibitors” (Chemmedchem, 2020)

Legend:
Format in all cases: cell-based
[1] = test system: acetylation of the HDAC8 substrate SMC3; test: Western blot of SMC3 acetylation in SK-N-BE(2)C cells; details: relative to solvent control
Description: Western blot analysis of SMC3, tubulin and histone H3 acetylation: For the analysis of protein acetylation, 1.5–2×10^6 SK‐N‐BE(2)‐C cells were seeded per 10 cm dish and allowed to adhere overnight. Cells were treated for 18 h (Figure 4B) or 6 h (Figure 4E) with inhibitors at concentrations indicated in the respective figure. […] Cell debris was removed by centrifugation (15 000 g for 10 min at 12 °C).

[2] = test system: acetylation of tubulin (HDAC6 substrate); test: Western blot of tubulin acetylation in SK-N-BE(2)C cells
Description: (§1) Western blot analysis of SMC3, tubulin and histone H3 acetylation: For the analysis of protein acetylation, 1.5–2×10^6 SK‐N‐BE(2)‐C cells were seeded per 10 cm dish and allowed to adhere overnight. Cells were treated for 18 h (Figure 4B) or 6 h (Figure 4E) with inhibitors at concentrations indicated in the respective figure. Cells were lysed in SDS lysis buffer (2 % w/v SDS, 10 % v/v glycerol, 1 mM DTT, 62.5 mM TRIS, pH 6.8) and proteins were denatured at 95 °C for 10 min. Cell debris was removed by centrifugation (15 000 g for 10 min at 12 °C). Western blot analysis was performed as described before.7a The following antibodies were used: anti‐acetylated tubulin (6‐11B‐1; Sigma) anti‐acetylated SMC3 (kindly provided by Katsuhiko Shirahige, Institute for Molecular and Cellular Biosciences, University of Tokyo, Japan),35 anti acetylated histone H3 (#06‐911, Millipore), anti histone H3 (#9715, Cell Signaling Technology) and anti β‐actin (#5441, Sigma‐Aldrich).

[3] = test system: acetylation of histone H3 (HDAC1 substrate); test: Western blot of histone H3 acetylation in SK-N-BE(2)C cells
Description: as §1

SMILES	acetylation of SMC3 (HDAC8 substrate), Western blot [1]	acetylation of tubulin (HDAC6 substrate), Western blot [2]	acetylation of histone H3 (HDAC1 substrate), Western blot [3]
CN(C)Cc1nn(Cc2ccc(C(=O)NO)cc2)c2cc(C(=O)NO)ccc12 [Compound 3g]	no effect	–	–
O=C(NO)c1ccc(Cc2c[nH]c3ccc(C(=O)NO)cc23)cc1 [Compound 3d]	increases acetylation	increases acetylation	significantly weaker effects
